Data from the NIST ThermoML archive (doi:10.1021/je8009418).

Conditions: Liquid; for speed of sound: Pulse-echo method; for mass density: Vibrating tube method

CCCCCO [pentan-1-ol]
Conditions	mass density [kg/m3]	speed of sound [m/s]
292.81 K, 100 kPa	–	1293.9
292.88 K, 76010 kPa	–	1611.2
292.88 K, 91210 kPa	–	1660
292.88 K, 101330 kPa	–	1691.4
292.91 K, 45590 kPa	–	1501.6
292.91 K, 60810 kPa	–	1558.3
292.95 K, 15200 kPa	–	1371.5
292.96 K, 30400 kPa	–	1439.7
293.15 K, 101.33 kPa	814.5	–
297.93 K, 30400 kPa	–	1424.8
297.93 K, 45600 kPa	–	1487.1
297.93 K, 60800 kPa	–	1544.3
297.93 K, 75990 kPa	–	1597.6
297.93 K, 91190 kPa	–	1647.3
297.93 K, 101340 kPa	–	1678.7
297.94 K, 15200 kPa	–	1355.5
298.15 K, 101.33 kPa	810.84	1275.2
298.18 K, 100 kPa	–	1275.1
303.05 K, 45600 kPa	–	1472.8
303.06 K, 15200 kPa	–	1339.3
303.06 K, 30410 kPa	–	1409.7
303.06 K, 91180 kPa	–	1634.6
303.06 K, 101330 kPa	–	1666.3
303.1 K, 60790 kPa	–	1530.6
303.1 K, 76000 kPa	–	1584.1
303.15 K, 100 kPa	–	1258
303.15 K, 101.33 kPa	807.155	–
308.04 K, 45600 kPa	–	1459
308.05 K, 76000 kPa	–	1571.6
308.06 K, 60800 kPa	–	1517.5
308.06 K, 91210 kPa	–	1622.5
308.06 K, 101330 kPa	–	1654.2
308.08 K, 15200 kPa	–	1323.5
308.08 K, 30400 kPa	–	1394.8
308.13 K, 100 kPa	–	1240.9
308.15 K, 101.33 kPa	803.442	–
313.02 K, 101340 kPa	–	1642.9
313.03 K, 30400 kPa	–	1380.7
313.03 K, 60790 kPa	–	1504.8
313.03 K, 75990 kPa	–	1559.2
313.03 K, 91190 kPa	–	1610.7
313.04 K, 15210 kPa	–	1308.5
313.05 K, 45600 kPa	–	1445.5
313.11 K, 100 kPa	–	1224.1
313.15 K, 101.33 kPa	799.705	–
318.15 K, 101.33 kPa	795.912	–
318.49 K, 76000 kPa	–	1546.4
318.49 K, 91200 kPa	–	1598.1
318.5 K, 60800 kPa	–	1491.2
318.51 K, 45590 kPa	–	1431.3
318.51 K, 101330 kPa	–	1630.8
318.52 K, 15200 kPa	–	1292
318.52 K, 30400 kPa	–	1365.4
318.68 K, 100 kPa	–	1205.5

OC1CCCC1 [cyclopentanol]
Conditions	mass density [kg/m3]	speed of sound [m/s]
292.85 K, 15200 kPa	–	1519.5
292.85 K, 30390 kPa	–	1576.3
292.85 K, 45590 kPa	–	1629.1
292.85 K, 60790 kPa	–	1677.8
292.85 K, 75990 kPa	–	1723.9
292.85 K, 91180 kPa	–	1767.2
292.85 K, 101320 kPa	–	1795
292.86 K, 100 kPa	–	1454.4
293.15 K, 101.33 kPa	946.792	–
298.14 K, 15200 kPa	–	1500.4
298.14 K, 30390 kPa	–	1557.8
298.14 K, 45590 kPa	–	1611.5
298.14 K, 60790 kPa	–	1661
298.14 K, 75990 kPa	–	1707.2
298.14 K, 91180 kPa	–	1751.2
298.14 K, 101320 kPa	–	1779.3
298.15 K, 101.33 kPa	942.856	1435.1
298.17 K, 100 kPa	–	1435
303.12 K, 15200 kPa	–	1482.2
303.12 K, 30390 kPa	–	1540.4
303.12 K, 45590 kPa	–	1595.1
303.12 K, 60790 kPa	–	1645.6
303.12 K, 75990 kPa	–	1692.6
303.12 K, 91180 kPa	–	1737.2
303.12 K, 101320 kPa	–	1765.5
303.15 K, 100 kPa	–	1416.9
303.16 K, 101.33 kPa	938.874	–
308.11 K, 15200 kPa	–	1464.8
308.11 K, 30390 kPa	–	1524.5
308.11 K, 45590 kPa	–	1579.4
308.11 K, 60790 kPa	–	1630.6
308.11 K, 75990 kPa	–	1678
308.11 K, 101320 kPa	–	1751.6
308.12 K, 91180 kPa	–	1723
308.13 K, 100 kPa	–	1398.7
308.15 K, 101.33 kPa	934.843	–
313.09 K, 15200 kPa	–	1447.6
313.09 K, 30390 kPa	–	1508.3
313.09 K, 45590 kPa	–	1564
313.09 K, 60790 kPa	–	1616.1
313.09 K, 75990 kPa	–	1664.1
313.09 K, 91180 kPa	–	1709.5
313.09 K, 101320 kPa	–	1738.6
313.12 K, 100 kPa	–	1380.6
313.15 K, 101.33 kPa	930.754	–
318.15 K, 101.33 kPa	926.613	–
318.19 K, 15200 kPa	–	1430.8
318.19 K, 45590 kPa	–	1548.6
318.19 K, 60790 kPa	–	1601.4
318.19 K, 75990 kPa	–	1650.3
318.19 K, 101320 kPa	–	1725.3
318.2 K, 30390 kPa	–	1492.4
318.2 K, 91180 kPa	–	1695.8
318.29 K, 100 kPa	–	1361.8

CCC(C)(C)O [2-methylbutan-2-ol]
Conditions	mass density [kg/m3]	speed of sound [m/s]
292.86 K, 15200 kPa	–	1290.8
292.86 K, 30390 kPa	–	1369.7
292.86 K, 45590 kPa	–	1440.9
292.86 K, 60790 kPa	–	1506
292.86 K, 75990 kPa	–	1566.1
292.86 K, 91180 kPa	–	1623.1
292.86 K, 101320 kPa	–	1658.5
292.9 K, 100 kPa	–	1196.7
293.15 K, 101.33 kPa	808.891	–
298.15 K, 101.33 kPa	804.3	1177.8
298.15 K, 15200 kPa	–	1274.2
298.15 K, 30390 kPa	–	1354.4
298.15 K, 45590 kPa	–	1426.3
298.15 K, 60790 kPa	–	1491.5
298.15 K, 75990 kPa	–	1551.9
298.15 K, 91180 kPa	–	1608.7
298.15 K, 101320 kPa	–	1644.4
298.17 K, 100 kPa	–	1177.8
303.13 K, 30390 kPa	–	1339.7
303.13 K, 45590 kPa	–	1412.3
303.13 K, 91180 kPa	–	1595.6
303.13 K, 101320 kPa	–	1631.4
303.14 K, 15200 kPa	–	1258.5
303.14 K, 60790 kPa	–	1478.1
303.14 K, 75990 kPa	–	1538.6
303.15 K, 100 kPa	–	1159.8
303.16 K, 101.33 kPa	799.66	–
308.12 K, 100 kPa	–	1141.9
308.12 K, 15200 kPa	–	1242.6
308.12 K, 30390 kPa	–	1324.9
308.12 K, 45590 kPa	–	1398
308.12 K, 60790 kPa	–	1464.7
308.12 K, 75990 kPa	–	1525.6
308.12 K, 91180 kPa	–	1582.6
308.12 K, 101320 kPa	–	1619
308.16 K, 101.33 kPa	794.954	–
313.1 K, 100 kPa	–	1124
313.1 K, 45590 kPa	–	1384.1
313.1 K, 60790 kPa	–	1451.2
313.1 K, 75990 kPa	–	1512.8
313.1 K, 91180 kPa	–	1569.9
313.11 K, 15200 kPa	–	1226.6
313.11 K, 30390 kPa	–	1310.1
313.11 K, 101320 kPa	–	1606.2
313.15 K, 101.33 kPa	790.176	–
318.15 K, 101.33 kPa	785.312	–
318.18 K, 15200 kPa	–	1210.4
318.18 K, 60790 kPa	–	1437.9
318.18 K, 75990 kPa	–	1499.8
318.18 K, 101320 kPa	–	1593.9
318.19 K, 30390 kPa	–	1295.2
318.19 K, 45590 kPa	–	1370.1
318.19 K, 91180 kPa	–	1557.2
318.29 K, 100 kPa	–	1105.3
